Measurements published in patent publication US7964591B2, “Pyridazine derivatives and their use as therapeutic agents” (Novartis Pharma AG, priority 2003, dated 2011).

target: T1, stearoyl-CoA desaturase (SCD) (Mus musculus, UniProt P13516); test: Stearoyl-CoA desaturase inhibition using mouse liver microsomes (HTS microsomal assay, IC50 follow-up); details: % SCD enzyme activity remaining at 10 μM test compound
T1 sequence (P13516 1-355): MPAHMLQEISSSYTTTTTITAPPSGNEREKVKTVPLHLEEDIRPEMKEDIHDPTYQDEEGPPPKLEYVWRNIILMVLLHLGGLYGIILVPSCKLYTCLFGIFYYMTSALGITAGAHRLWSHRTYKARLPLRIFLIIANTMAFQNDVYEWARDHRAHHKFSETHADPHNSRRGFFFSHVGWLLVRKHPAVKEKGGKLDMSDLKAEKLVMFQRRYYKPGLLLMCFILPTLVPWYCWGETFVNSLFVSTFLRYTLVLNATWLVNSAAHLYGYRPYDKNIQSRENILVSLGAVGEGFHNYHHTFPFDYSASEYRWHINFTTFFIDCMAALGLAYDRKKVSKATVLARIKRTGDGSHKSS
Description: Livers are immediately rinsed with cold 0.9% NaCl solution, weighed and minced with scissors. All procedures are performed at 4° C. unless specified otherwise. Livers are homogenized in a solution (1:3 w/v) containing 0.25 M sucrose, 62 mM potassium phosphate buffer (pH 7.0), 0.15 M KCl, 1.5 mM N-acetyleysteine, 5 mM MgCl2, and 0.1 mM EDTA using 4 strokes of a Potter-Elvehjem tissue homogenizer. The homogenate is centrifuged at 10,400×g for 20 min to eliminate mitochondria and cellular debris. The supernatant is filtered through a 3-layer cheesecloth and centrifuged at 105,000×g for 60 min. The microsomal pellet is gently resuspended in the same homogenization solution with a small glass/teflon homogenizer and stored at −70° C. The absence of mitochondrial contamination is enzymatically assessed. The protein concentration is measured using bovine serum albumin as the standard.
The tubes are vortexed vigorously and after 15 min incubation in a shaking water bath (37° C.), the reactions are stopped and fatty acids are analyzed.
Fatty acids are analyzed as follows: The reaction mixture is saponified with 10% KOH to obtain free fatty acids which are further methylated using BF3 in methanol. […] Fatty acid methyl esters are separated isocratically with acetonitrile/water (95:5 v:v) at a flow rate of 1 mL/min and are identified by comparison with authentic standards.
The compounds are analyzed with an HTS microsomal assay. The activities are defined in terms of % SCD enzyme activity remaining at the selected concentration (e.g., 10 μM) of the test compounds.

Mouse Microsome 10% remaining @ 10 μM [%] | SMILES
7 | COc1ccc(CCNC(=O)c2ccc(N3CCN(C(=O)c4ccccc4C(F)(F)F)CC3)nn2)cc1 [6-[4-(2-TRIFLUOROMETHYLBENZOYL)PIPERAZIN-1-YL]PYRIDAZINE-3-CARBOXYLIC ACID [2-(4-METHOXYPHENYL)ETHYL]AMIDE]
12 | O=C(NCCC1CC1)c1ccc(N2CCN(Cc3ccccc3C(F)(F)F)CC2)nn1 [6-[4-(2-TRIFLUOROMETHYLBENZYL)PIPERAZIN-1-YL]PYRIDAZINE-3-CARBOXYLIC ACID (2-CYCLOPROPYLETHYL)AMIDE]
7 | O=C(NCCC1CC1)c1ccc(N2CCN(C(=O)c3ccoc3C(F)(F)F)CC2)nn1 [6-[4-(2-TRIFLUOROMETHYLFURAN-3-CARBONYL)PIPERAZIN-1-YL]PYRIDAZINE-3-CARBOXYLIC ACID (2-CYCLOPROPYLETHYL)AMIDE]
0 | O=C(NCCc1ccccc1)c1ccc(N2CCN(C(=O)c3ccccc3C(F)(F)F)CC2)nn1 [6-[4-(2-Trifluoromethylbenzoyl)piperazin-1-yl]pyridazine-3-carboxylic acid phenethylamide]
8 | CC(C(=O)N1CCN(c2ccc(C(=O)NCCC3CC3)nn2)CC1)(C(F)(F)F)C(F)(F)F [6-[4-(3,3,3-TRIFLUORO-2-METHYL-2-TRIFLUOROMETHYLPROPIONYL)PIPERAZIN-1-YL]PYRIDAZINE-3-CARBOXYLIC ACID (2-CYCLOPROPYLETHYL)AMIDE]
61 | CC(C)CCNC(=O)c1ccc(N2CCN(C(=O)c3c(C(F)(F)F)nnn3Cc3ccccc3)CC2)nn1 [6-[4-(3-BENZYL-5-TRIFLUOROMETHYL-3H-[1,2,3]TRIAZOLE-4-CARBONYL)PIPERAZIN-1-YL]PYRIDAZINE-3-CARBOXYLIC ACID (3-METHYLBUTYL)AMIDE]
19 | CC(C)CCNC(=O)c1ccc(N2CCN(C(=O)C(C)CC(F)(F)F)CC2)nn1 (stereo not shown) [6-[4-(4,4,4-TRIFLUORO-2-METHYLBUTYRYL)PIPERAZIN-1-YL]PYRIDAZINE-3-CARBOXYLIC ACID (3-METHYLBUTYL)AMIDE]
8 | O=C(NCCC1CC1)c1ccc(N2CCN(C(=O)CC(O)(C(F)(F)F)C(F)(F)F)CC2)nn1 [6-[4-(4,4,4-TRIFLUORO-3-HYDROXY-3-TRIFLUOROMETHYLBUTYRYL)PIPERAZIN-1-YL]PYRIDAZINE-3-CARBOXYLIC ACID (2-CYCLOPROPYLETHYL)AMIDE]
9 | CC(=CC(=O)N1CCN(c2ccc(C(=O)NCCC(C)C)nn2)CC1)C(F)(F)F [6-[4-(4,4,4-TRIFLUORO-3-METHYLBUT-2-ENOYL)PIPERAZIN-1-YL]-PYRIDAZINE-3-CARBOXYLIC ACID (3-METHYLBUTYL)AMIDE]
11 | CC(C)CCNC(=O)c1ccc(N2CCN(C(=O)CC(C)C(F)(F)F)CC2)nn1 (stereo not shown) [6-[4-(4,4,4-TRIFLUORO-3-METHYLBUTYRYL)PIPERAZIN-1-YL]PYRIDAZINE-3-CARBOXYLIC ACID (3-METHYLBUTYL)AMIDE]
42 | CC(C)CCNC(=O)c1ccc(N2CCN(C(=O)CCC(F)(F)F)CC2)nn1 [6-[4-(4,4,4-TRIFLUOROBUTYRYL)PIPERAZIN-1-YL]PYRIDAZINE-3-CARBOXYLIC ACID (3-METHYLBUTYL)AMIDE]
12 | O=C(NCCC1CC1)c1ccc(N2CCN(Cc3ccc(F)cc3C(F)(F)F)CC2)nn1 [6-[4-(4-FLUORO-2-TRIFLUOROMETHYLBENZYL)-PIPERAZIN-1-YL]PYRIDAZINE-3-CARBOXYLIC ACID (2-CYCLOPROPYLETHYL)AMIDE]
29 | CC(C)CCNC(=O)c1ccc(N2CCN(C(=O)N3CCN(C)CC3)CC2)nn1 [6-[4-(4-METHYLPIPERAZINE-1-CARBONYL)PIPERAZIN-1-YL]PYRIDAZIN E-3-CARBOXYLIC ACID (3-METHYLBUTYL)AMIDE]
8 | CC(C)CCNC(=O)c1ccc(N2CCN(C(=O)c3cnccc3C(F)(F)F)CC2)nn1 [6-[4-(4-TRIFLUOROMETHYLPYRIDINE-3-CARBONYL)PIPERAZIN-1-YL]PYRIDAZINE-3-CARBOXYLIC ACID (3-METHYLBUTYL)AMIDE]
12 | O=C(NCCC1CC1)c1ccc(N2CCN(C(=O)c3cc(Cl)ccc3C(F)(F)F)CC2)nn1 [6-[4-(5-CHLORO-2-TRIFLUOROMETHYLBENZOYL)PIPERAZIN-1-YL]PYRIDAZINE-3-CARBOXYLIC ACID (2-CYCLOPROPYLETHYL)AMIDE]
7 | O=C(NCCC1CC1)c1ccc(N2CCN(Cc3cc(Cl)ccc3C(F)(F)F)CC2)nn1 [6-[4-(5-CHLORO-2-TRIFLUOROMETHYLBENZYL)PIPERAZIN-1-YL]PYRIDAZINE-3-CARBOXYLIC ACID (2-CYCLOPROPYLETHYL)AMIDE]
3 | O=C(NCCC1CC1)c1ccc(N2CCN(Cc3cc(F)ccc3C(F)(F)F)CC2)nn1 [6-[4-(5-FLUORO-2-TRIFLUOROMETHYLBENZYL)PIPERAZIN-1-YL]PYRIDAZINE-3-CARBOXYLIC ACID (2-CYCLOPROPYLETHYL)AMIDE]
8 | O=C(NCCCC1CC1)c1ccc(N2CCN(Cc3cc(F)ccc3C(F)(F)F)CC2)nn1 [6-[4-(5-FLUORO-2-TRIFLUOROMETHYLBENZYL)PIPERAZIN-1-YL]PYRIDAZINE-3-CARBOXYLIC ACID (3-CYCLOPROPYLPROPYL)AMIDE]
94 | O=C(NCCC1CC1)c1ccc(N2CCN(C(=O)c3ccccn3)CC2)nn1 [6-[4-(PYRIDINE-2-CARBONYL)PIPERAZIN-1-YL]PYRIDAZINE-3-CARBOXYLIC ACID (2-CYCLOPROPYLETHYL)AMIDE]
24 | CC(c1ccccc1C(F)(F)F)N1CCN(c2ccc(C(=O)NCCC3CC3)nn2)CC1.Cl (stereo not shown) [6-{4-[1-(2-TRIFLUOROMETHYLPHENYL)ETHYL]PIPERAZIN-1-YL}-PYRIDAZINE-3-CARBOXYLIC ACID (2-CYCLOPROPYLETHYL)AMIDE HYDROCHLORIDE]
10 | O=C(NCCC1CC1)c1ccc(N2CCN(C(=O)Cc3ccccc3C(F)(F)F)CC2)nn1 [6-{4-[2-(2-TRIFLUOROMETHYLPHENYL)ACETYL]PIPERAZIN-1-YL}PYRIDAZINE-3-CARBOXYLIC ACID (2-CYCLOPROPYLETHYL)AMIDE]
46 | CC(=O)Oc1ccccc1C(=O)N1CCN(c2ccc(C(=O)NCCC3CC3)nn2)CC1 [ACETIC ACID 2-{4-[6-(2-CYCLOPROPYLETHYLCARAMOYL)PYRIDAZIN-3-YL]-PIPERAZINE-1-CARBONYL}PHENYL ESTER]
